From PubChem BioAssay (NCI) come the findings set out here.

Several values for one entry are separate records, joined by “and”; a condition that tells them apart may be missing. Equal values may be shown once.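 Five compound concentrations were applied to cells in 96-well plates for 48 hours; endpoints were derived by simple linear interpolation of the resulting dose-response curve. Abbreviation: GI50, concentration required for 50% inhibition of growth. TGI is the concentration that stops growth completely.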

The test system of this assay is MDA-MB-468 breast. Put plainly: growth of human tumour cells (NCI), 48 h.
Regarding `CC1=C([Se]CC(OC(=O)[C@@H](CO)NC(=O)OC(C)(C)C)C(=O)NC(C)(C)C)C(=O)c2ccccc2C1=O` (some centres undefined), the GI50 was 0.759 µM and the TGI was 2.29 µM.
Turning to `Oc1cc(O)c2c(=S)cc(-c3ccc(Cl)cc3)oc2c1`, the GI50 was 0.26 µM and the TGI came out at 3.1 µM.
As for `O=C1/C(=C/c2ccccc2)CCC/C1=C\c1ccccc1`, the GI50 is 3.12 µM and the TGI was 19.4 µM.
On to `CC[CH2][Sn]([Cl])([Cl])[CH2]CC`, for which the GI50 was 1.92 µM and the TGI is 6.96 µM.
Consider `COc1ccc(C2=C(c3cc(OC)c(OC)c(OC)c3)C(=O)CC2)cc1`, for which the GI50 is 0.0673 µM.
With `O=C1/C(=C\c2coc3ccccc3c2=O)c2ccccc2N1c1c(Cl)cccc1Cl`, the GI50 was 2.44 µM and the TGI worked out at 13.1 µM.
The corresponding values for `COc1cc([C@@H]2c3cc4c(cc3[C@H](O)[C@H]3COC(=O)[C@H]23)OCO4)cc(OC)c1OC` are less than 0.01 µM and less than 0.01 µM.
For the compound `CCO/C=N/C1=C(C#N)C(c2ccc(F)cc2)c2sc3c(CC)cccc3c2O1` (centres undefined), the GI50 was 0.421 µM and the TGI was 16 µM.
For `CCN(CC)CCCC(Nc1c2ccc(Cl)cc2nc2ccc(OC)cc12)c1ccc(F)cc1` (centres undefined), the GI50 is 1.65 µM and the TGI stood at 3.22 µM.
For the compound `CNC(C)C(=O)N[C@H](C(=O)N1CCC[C@@H]1CN(CCc1ccccc1)C(=O)C(F)(F)F)[C@H](C)OCC#CC#CCO[C@H](C)[C@H](NC(=O)[C@H](C)NC)C(=O)N1CCC[C@H]1CN(CCc1ccccc1)C(=O)C(F)(F)F` (some centres undefined), the GI50 was less than 0.01 µM and the TGI turned out to be 0.0221 µM.
The corresponding values for `N#Cc1c(NC(=O)CN2CCOCC2)sc2c1CCCC2` are more than 21.7 µM and more than 25 µM.
Regarding `COC(=O)[C@H](CC(C)C)NC(=O)NC(=O)NC(=O)CI`, the GI50 is 1.97 µM and the TGI stood at 4.24 µM.
The corresponding values for `C#CCNC(=O)CC[C@]1(C)[C@H]2CC[C@@H]3[C@@H]([C@@](C)(O)CCC=C(C)C)CC[C@@]3(C)[C@]2(C)CC[C@H]1C(=C)C` are 33.6 µM and more than 100 µM.
Take `COc1ccc(/C=C\c2cc(OC)c(OC)c(OC)c2)cc1OC(=O)c1cccc(Cn2cc(CCOC(=O)c3cccc(Cn4nnc5c4C(=O)c4ccccc4C5=O)c3)nn2)c1`: the GI50 is less than 0.0138 µM.
`COc1cc([C@@H]2c3cc4c(cc3[C@@H](O[C@@H]3O[C@@H]5CO[C@@H](c6cccs6)O[C@H]5[C@H](O)[C@H]3O)[C@H]3COC(=O)[C@H]23)OCO4)cc(OC)c1O`: the GI50 is 0.186 µM and the TGI came out at 0.537 µM.
In the case of `COc1c(CNC(=O)CCl)cc2[nH]c(C)cc2c1CNC(=O)CCl`, the GI50 was 5.94 µM and the TGI came out at 25.9 µM.
For `Cn1cc(C[C@@H](N)C(=O)O)c2ccccc21`, the GI50 is more than 100 µM and the TGI is more than 100 µM.
On to `CCCN(CCC)CCCNC(=O)c1cc2c(-c3ccc(OC)c(OC)c3)nn(C)c2s1`, for which the GI50 is 14 µM and the TGI is 34.5 µM.
The corresponding values for `COc1ccc(-c2cc(/C=C3\C(=O)Nc4ccc(OC)cc43)[nH]n2)cc1` are 3.71 µM and more than 100 µM.
With `COc1ccc(-c2nn(-c3cccc(NC(=O)Nc4cc(C(F)(F)F)cc(C(F)(F)F)c4)c3)cc2-c2ccncc2)cc1Cl`, the GI50 was 0.641 µM and the TGI is 2.89 µM.
As to `COc1cccc(C2C3=C(COC3=O)N(CCO)c3cc4c(cc32)OCCO4)c1` (centres undefined), the GI50 is 0.0684 µM and the TGI is 1.27 µM.
In the case of `Clc1ccc(-c2nn3ncccc3c2-c2ccnc(Nc3ccccc3)n2)cc1`, the GI50 is 1.19 µM and the TGI turned out to be 9.63 µM.
The corresponding values for `C/C(=C\CCc1ccoc1)CC/C=C(\C)CCCN1CCC(CO)CC1` are 1.7 µM and 4.45 µM.
For the compound `C#COc1cccc(Nc2ncnc3ncc(NC(=O)CCl)cc23)c1`, the GI50 was more than 35.4 µM and the TGI was more than 62.5 µM.
On to `CC[C@H](C)n1cc(C)c2c(C(=O)NCc3c(C)cc(C)[nH]c3=O)cc(-c3ccc(N4CCNCC4)nc3)cc21`, for which the GI50 was 2.15 µM and 5.09 µM; the TGI was 7.63 µM and 18.7 µM.
Take `CC(=O)OC[C@]12CC[C@@H]([C@@H](C)C(N)=O)[C@@H]1[C@H]1CC[C@@H]3[C@@]4(C)CC[C@H](OC(C)=O)C(C)(C)[C@@H]4CC[C@@]3(C)[C@]1(C)CC2`: the GI50 was 3.96 µM and the TGI is 15.6 µM.
In the case of `COC(=O)Nc1nc2cc3c(cc2s1)OCCO3`, the GI50 was 29.2 µM and the TGI is more than 50 µM.
As for `CN1CCN(Cc2ccc(NC(=O)c3ccc(C#N)c(C#Cc4cnc(N)c5ncccc45)c3)cc2C(F)(F)F)CC1`, the GI50 is 16.9 µM and the TGI came to 63.5 µM.
`N#Cc1cccc(NC(=O)c2oc3ccccc3c2-c2cnn(-c3ccccc3)c2)c1`: the GI50 is 406 µM and the TGI is more than 500 µM.
For the compound `C=CCN(/C=C1\C(=O)O[C@H](COC)[C@@]2(C)C1=C(O)C(=O)C1=C2[C@H](OC(C)=O)C[C@]2(C)C(=O)CC[C@@H]12)CC=C`, the GI50 was 0.0778 µM and the TGI is 0.649 µM.
`CCCCN(CCCC)CCCN=c1nc2c(c(N)n1-c1ccccc1)c(=S)n(-c1ccccc1)c(=S)n2-c1ccccc1`: the GI50 was 0.218 µM and the TGI is 0.518 µM.
For `Cc1nc(/N=C(\N)NC(=O)Nc2ccccc2Cl)sc1C`, the GI50 was 0.459 µM and the TGI is 4.67 µM.
Regarding `CN(C)CCCNc1nccc(-c2c(-c3ccc(F)cc3)nn3cc(C(F)(F)F)ccc23)n1`, the GI50 is 3.03 µM and the TGI was 7.35 µM.
For the compound `COc1cc(C2CC(c3cc(C)ccc3C)=NN2c2ccc(S(=O)(=O)NC(=O)NCc3ccccc3)cc2)cc(OC)c1OC` (centres undefined), the GI50 is 2.32 µM and the TGI was determined as 5.53 µM.
With `Cc1cc(-c2nc(-c3ccc(OC(F)(F)F)cc3)no2)nn1Cc1ccnc(N2CCN(C3CC3)CC2)c1`, the GI50 was less than 0.01 µM and the TGI turned out to be 5.68 µM.
For `OC(COc1cccc2ccccc12)CN1CCN(c2ccccc2)CC1` (centres undefined) the same measures were 16.6 µM and 31.1 µM.
Consider `CC[C@@H](C(=O)[C@@H](C)[C@@H](O)[C@H](C)[C@@H]1O[C@@H]([C@@H](CC)C(=O)O)CC[C@@H]1C)[C@H]1OC2(C=C[C@@H](O)[C@]3(CC[C@@](C)([C@H]4CC[C@](O)(CC)[C@H](C)O4)O3)O2)[C@H](C)C[C@@H]1C` (some centres undefined), for which the GI50 is 0.15 µM and the TGI turned out to be 1.95 µM.
Regarding `CC1=C(/C=C/C(C)=C/C=C/C(C)=C/C(=O)Nc2ccc(O)cc2)C(C)(C)CCC1`, the GI50 was 2.22 µM and the TGI was determined as 8.41 µM.
For `C=C1CCC2C3(C)COC(c4ccc(SC)cc4)OC3CCC2(C)C1C/C=C1/C(=O)OCC1O` (centres undefined), the GI50 is 5.34 µM and the TGI stood at 18.3 µM.
With `COc1ccc(/C=C/c2cc(N3CCOCC3)c3cc(F)c(F)cc3n2)cc1OC`, the GI50 is 0.277 µM and the TGI came to 1.64 µM.
For `N#Cc1c(-c2ccccc2)cc(-c2ccccc2)n(CCCCC(=O)NO)c1=O`, the GI50 is 2.51 µM and the TGI turned out to be 11.8 µM.
Take `Nc1ccccc1NC(=O)c1ccc(CN2CCC/C(=C\c3cccc(Cl)c3)C2=O)cc1`: the GI50 is 0.0636 µM and the TGI came out at 5.9 µM.
For the compound `COC(=O)[C@@]1(C)CC[C@]2(C)CC[C@]3(C)C4=CC=C5C(=CC(=O)C(O)=C5C)[C@]4(C)CC[C@@]3(C)[C@@H]2C1`, the GI50 was 0.165 µM and the TGI worked out at 0.359 µM.
